Each molecule was assayed against T1, CFTR (primary human bronchial epithelial cells from a ΔF508 homozygous CF donor, CF-HBE cells) (Homo sapiens, UniProt P13569, DEL508-508) (assay: TECC24 recording of CFTR-mediated transepithelial chloride transport (TECC24 AUC fold over DMSO @ 3 μM)). Details: 3 uM test agent; CF-HBE cells (ΔF508 homozygous) incubated 48 h; ratio of test agent AUC of forskolin-stimulated IEQ to vehicle (DMSO) AUC.
T1 construct: Primary human bronchial epithelial cells from a ΔF508 homozygous CF donor; host or cells: primary human bronchial epithelial cells (CF-HBE) from a ΔF508 homozygous CF donor
Format: cell-based
Protocol: Example 510: TECC24 AUC Fold Over DMSO @ 3 μM
The effects of a test agent on CFTR-mediated transepithelial chloride transport was measured using TECC24 recording analysis. Test agents were solubilized in DMSO. Solubilized test agents were mixed with incubation medium containing DMEM/F12, Ultroser G (2%; Crescent Chemical, catalog #67042), Hyclone Fetal Clone H (2%; GE Healthcare, catalog #SH30066.02), bovine brain extract (0.25%; Lonza, catalog #CC-4098), insulin (2.5 μg/mL), IL-13 (10 ng/mL), hydrocortisone (20 nM), transferrin (2.5 μg/mL), triiodothyronine (500 nM), ethanolamine (250 nM), epinephrine (1.5 μM), phosphoethanolamine (250 nM), and retinoic acid (10 nM). Primary human bronchial epithelial cells from a ΔF508 homozygous CF donor (CF-HBE cells; from University of North Carolina Cystic Fibrosis Tissue Procurement Center), grown on Transwell HTS 24-well cell culture inserts (Costar, catalog #3378), were exposed to test agents or controls dissolved in incubation medium. The CF-HBE cells were cultured at 36.5° C. for 48 h before TECC24 recordings were performed in the presence or absence of test agent, a positive control or vehicle (DMSO).
Following incubation, the transwell cell culture inserts containing the test agent or control-treated CF-HBE cells were loaded onto a TECC24 apparatus (TECC v7 or MTECC v2; EP Design) to record the transepithelial voltage (VT) and resistance (TEER) using 4 AgCl electrodes per well configured in current-clamp mode. The apical and basolateral bath solutions both contained (in mM) 140 NaCl, 5 KCl, 2 CaCl2), 1 MgCl2, 10 Hepes, and 10 glucose (adjusted to pH 7.4 with NaOH) […]. To inhibit basal Na+ absorption, the ENaC inhibitor benzamil (10 μM) was added to the bath. Then, the adenylate cyclase activator, forskolin (10 μM), was added to the bath to activate CFTR. The forskolin-stimulated Cl− transport was halted by addition of bumetanide (20 μM), an inhibitor of the basolateral chloride co-transporter NKCC1, to the bath to confirm that the detected signal was chloride dependent. VT and TEER recordings were digitally acquired at routine intervals using TECC or MTECC software (EP Design). VT and TEER were transformed into equivalent transepithelial Cl− current (IEQ), and the Area Under the Curve (AUC) of the IEQ time course between forskolin and bumetanide addition is generated using Excel (Microsoft). Efficacy is expressed as the ratio of the test agent AUC divided by vehicle AUC. EC50s based on AUC are generated using the non-linear regression log(agonist) vs. response function in Prism software (GraphPad) with Hill Slope fixed=1.
If a test agent increased the AUC of the forskolin-stimulated IEQ relative to vehicle in CF-HBE cells, and this increase was inhibited by bumetanide, then the test agent was considered a CFTR corrector.

T1 sequence (P13569 with tags, fused parts or gaps DEL508-508): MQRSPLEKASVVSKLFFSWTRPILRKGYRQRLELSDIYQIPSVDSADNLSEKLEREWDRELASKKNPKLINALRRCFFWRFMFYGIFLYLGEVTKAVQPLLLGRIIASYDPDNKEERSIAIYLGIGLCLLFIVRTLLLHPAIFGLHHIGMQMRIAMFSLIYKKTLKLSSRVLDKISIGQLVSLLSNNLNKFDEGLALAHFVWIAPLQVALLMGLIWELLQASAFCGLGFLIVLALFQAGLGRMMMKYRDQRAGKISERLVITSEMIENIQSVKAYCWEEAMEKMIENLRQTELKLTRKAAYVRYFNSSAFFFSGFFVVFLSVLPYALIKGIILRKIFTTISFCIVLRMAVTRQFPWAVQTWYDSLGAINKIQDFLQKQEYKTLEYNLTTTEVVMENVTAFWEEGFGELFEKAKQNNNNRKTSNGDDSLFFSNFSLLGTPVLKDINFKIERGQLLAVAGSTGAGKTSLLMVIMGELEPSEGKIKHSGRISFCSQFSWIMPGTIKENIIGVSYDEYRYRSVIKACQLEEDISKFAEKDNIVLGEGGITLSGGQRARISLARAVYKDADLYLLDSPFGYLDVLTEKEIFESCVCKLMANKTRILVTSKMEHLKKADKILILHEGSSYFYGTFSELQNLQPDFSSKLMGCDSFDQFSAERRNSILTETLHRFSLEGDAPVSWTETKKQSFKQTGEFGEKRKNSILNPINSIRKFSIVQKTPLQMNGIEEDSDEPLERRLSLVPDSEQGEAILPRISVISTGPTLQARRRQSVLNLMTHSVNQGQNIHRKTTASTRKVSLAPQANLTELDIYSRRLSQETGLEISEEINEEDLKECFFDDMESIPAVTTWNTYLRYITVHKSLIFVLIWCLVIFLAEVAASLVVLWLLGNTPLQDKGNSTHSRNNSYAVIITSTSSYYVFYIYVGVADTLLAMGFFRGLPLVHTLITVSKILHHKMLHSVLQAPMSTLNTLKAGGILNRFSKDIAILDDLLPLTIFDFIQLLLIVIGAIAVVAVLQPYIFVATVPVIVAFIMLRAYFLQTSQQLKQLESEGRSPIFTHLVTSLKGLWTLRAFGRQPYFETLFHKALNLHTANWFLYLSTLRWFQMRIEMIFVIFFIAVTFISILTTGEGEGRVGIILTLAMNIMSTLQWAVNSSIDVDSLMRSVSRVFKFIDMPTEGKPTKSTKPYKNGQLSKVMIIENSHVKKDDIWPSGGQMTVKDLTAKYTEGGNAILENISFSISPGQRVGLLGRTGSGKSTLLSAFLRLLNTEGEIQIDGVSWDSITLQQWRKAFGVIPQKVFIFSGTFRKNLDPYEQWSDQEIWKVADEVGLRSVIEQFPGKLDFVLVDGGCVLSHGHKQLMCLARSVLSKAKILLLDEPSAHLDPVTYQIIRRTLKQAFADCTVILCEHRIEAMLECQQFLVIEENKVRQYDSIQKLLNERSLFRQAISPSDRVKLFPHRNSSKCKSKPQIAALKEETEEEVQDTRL

SMILES | TECC AUC vs. DMSO @ 3 uM
Nc1cccc(S(=O)(=O)Nc2nc(-c3ccc(C(F)(F)F)cc3)c(-c3cc(F)cc(O[C@H]4CCC(OC(F)(F)F)C4)c3)s2)c1 (single isomer, unassigned) [Example 43A] | B (“B” refers to AUC 2-5)
Nc1cccc(S(=O)(=O)Nc2nc(-c3ccc(C(F)(F)F)cc3)c(-c3cc(F)cc(O[C@@H]4CCC(OC(F)(F)F)C4)c3)s2)c1 (single isomer, unassigned) [Example 43B] | A (“A” refers to AUC > 5)
O=S(=O)(Nc1nc(-c2ccccc2C(F)(F)F)c(-c2cccc([C@H]3CC[C@@H](OC(F)(F)F)C3)c2)s1)c1ccccc1 (single isomer, unassigned) [Example 44A1] | B (“B” refers to AUC 2-5)
O=S(=O)(Nc1nc(-c2ccccc2C(F)(F)F)c(-c2cccc([C@H]3CC[C@H](OC(F)(F)F)C3)c2)s1)c1ccccc1 (single isomer, unassigned) [Example 44A2] | C (“C” refers to AUC < 2)
O=S(=O)(Nc1nc(-c2ccccc2C(F)(F)F)c(-c2cccc([C@@H]3CC[C@@H](OC(F)(F)F)C3)c2)s1)c1ccccc1 (single isomer, unassigned) [Example 44B1] | B (“B” refers to AUC 2-5)
O=S(=O)(Nc1nc(-c2ccccc2C(F)(F)F)c(-c2cccc([C@@H]3CC[C@H](OC(F)(F)F)C3)c2)s1)c1ccccc1 (single isomer, unassigned) [Example 44B2] | C (“C” refers to AUC < 2)
Cc1nn(C)cc1S(=O)(=O)Nc1nc(-c2ccccc2C(F)(F)F)c(-c2cccc([C@H]3CC[C@@H](OC(F)(F)F)C3)c2)s1 (single isomer, unassigned) [Example 45A1] | B (“B” refers to AUC 2-5)
Cc1nn(C)cc1S(=O)(=O)Nc1nc(-c2ccccc2C(F)(F)F)c(-c2cccc([C@H]3CC[C@H](OC(F)(F)F)C3)c2)s1 (single isomer, unassigned) [Example 45A2] | B (“B” refers to AUC 2-5)
Cc1nn(C)cc1S(=O)(=O)Nc1nc(-c2ccccc2C(F)(F)F)c(-c2cccc([C@@H]3CC[C@H](OC(F)(F)F)C3)c2)s1 (single isomer, unassigned) [Example 45B1] | A (“A” refers to AUC > 5)
Cc1nn(C)cc1S(=O)(=O)Nc1nc(-c2ccccc2C(F)(F)F)c(-c2cccc([C@@H]3CC[C@@H](OC(F)(F)F)C3)c2)s1 (single isomer, unassigned) [Example 45B2] | C (“C” refers to AUC < 2)
Nc1cccc(S(=O)(=O)Nc2nc(-c3ccccc3C(F)(F)F)c(-c3cccc([C@H]4CC[C@@H](OC(F)(F)F)C4)c3)s2)c1F (single isomer, unassigned) [Example 47A1] | C (“C” refers to AUC < 2)
Nc1cccc(S(=O)(=O)Nc2nc(-c3ccccc3C(F)(F)F)c(-c3cccc([C@H]4CC[C@H](OC(F)(F)F)C4)c3)s2)c1F (single isomer, unassigned) [Example 47A2] | C (“C” refers to AUC < 2)
Cc1cccc(C)c1-c1nc(NS(=O)(=O)c2ccccc2)sc1-c1cc(F)cc(OCC(C)(C)C)c1 [Example 1, N-(4-(2,6-Dimethylphenyl)-5-(3-fluoro-5-(neopentyloxy)phenyl)thiazol-2-yl)benzenesulfonamide] | A (“A” refers to AUC > 5)
Cc1cccc(C(F)(F)F)c1-c1nc(NS(=O)(=O)c2ccccc2)sc1-c1cc(F)cc(OCCC(C)(C)C)c1 [Example 2, N-(5-(3-(3,3-Dimethylbutoxy)-5-fluorophenyl)-4-(2-methyl-6-(trifluoromethyl)phenyl)thiazol-2-yl)benzenesulfonamide] | A (“A” refers to AUC > 5)
CC(C)c1ccccc1-c1nc(NS(=O)(=O)c2ccccc2)sc1-c1cc(F)cc(OCCC(C)(C)C)c1 [Example 3, N-(5-(3-(3,3-Dimethylbutoxy)-5-fluorophenyl)-4-(2-isopropylphenyl)thiazol-2-yl)benzenesulfonamide] | A (“A” refers to AUC > 5)
CC(C)Oc1ccccc1-c1nc(NS(=O)(=O)c2ccccc2)sc1-c1cccc(OCC(C)(C)C)c1 [Example 4, N-(4-(2-Isopropoxyphenyl)-5-(3-(neopentyloxy)phenyl)thiazol-2-yl)benzenesulfonamide] | B (“B” refers to AUC 2-5)
CC(Oc1cc(F)ccc1-c1nc(NS(=O)(=O)c2ccn(C)n2)sc1-c1cc(F)cc(OCCC(C)(C)C)c1)C(F)(F)F (stereo not shown) [Example 5, N-(5-(3-(3,3-Dimethylbutoxy)-5-fluorophenyl)-4-(4-fluoro-2-((1,1,1-trifluoropropan-2-yl)oxy)phenyl)thiazol-2-yl)-1-methyl-1H-pyrazole-3-sulfonamide] | B (“B” refers to AUC 2-5)
Cc1cccc(C)c1-c1nc(NS(=O)(=O)c2cn(C)nc2C)sc1-c1cccc(OCC(C)(C)C(F)(F)F)c1 [Example 6, N-(4-(2,6-Dimethylphenyl)-5-(3-(3,3,3-trifluoro-2,2-dimethylpropoxy)phenyl)thiazol-2-yl)-1,3-dimethyl-1H-pyrazole-4-sulfonamide] | B (“B” refers to AUC 2-5)
Cc1cccc(C)c1-c1nc(NS(=O)(=O)c2cccc(N)c2)sc1-c1cc(F)cc(OCCC(C)(C)C)c1 [Example 7, 3-Amino-N-(5-(3-(3,3-dimethylbutoxy)-5-fluorophenyl)-4-(2,6-dimethylphenyl)thiazol-2-yl)benzenesulfonamide] | A (“A” refers to AUC > 5)
CC(C)(C)CCOc1cccc(-c2sc(NS(=O)(=O)c3cccc(N)c3)nc2-c2ccccc2C(F)(F)F)c1 [Example 8, 3-Amino-N-[5-[3-(3,3-dimethylbutoxy)phenyl]-4-[2-(trifluoromethyl)phenyl]thiazol-2-yl]benzenesulfonamide] | A (“A” refers to AUC > 5)
CC(C)(C)CCOc1cc(F)cc(-c2sc(NS(=O)(=O)c3cccc(N)c3)nc2-c2ccc(C(F)(F)F)cc2)c1 [Example 9, 3-Amino-N-(5-(3-(3,3-dimethylbutoxy)-5-fluorophenyl)-4-(4-(trifluoromethyl)phenyl)thiazol-2-yl)benzenesulfonamide] | B (“B” refers to AUC 2-5)
CC(C)(C)CCOc1cccc(-c2sc(NS(=O)(=O)c3cccc(N)c3)nc2-c2ccc(C(F)(F)F)cc2)c1 [Example 10, 3-Amino-N-(5-(3-(3,3-dimethylbutoxy)phenyl)-4-(4-(trifluoromethyl)phenyl)thiazol-2-yl)benzenesulfonamide] | A (“A” refers to AUC > 5)
CC(C)c1ccccc1-c1nc(NS(=O)(=O)c2cccc(N)c2)sc1-c1cc(F)cc(OCCC(C)(C)C)c1 [Example 11, 3-Amino-N-(5-(3-(3,3-dimethylbutoxy)-5-fluorophenyl)-4-(2-isopropylphenyl)thiazol-2-yl)benzenesulfonamide] | A (“A” refers to AUC > 5)
Cc1cccc(C)c1-c1nc(NS(=O)(=O)c2cc(N)ccc2F)sc1-c1ccc(F)c(OCC(C)(C)C(F)(F)F)c1 [Example 12, 5-Amino-N-(4-(2,6-dimethylphenyl)-5-(4-fluoro-3-(3,3,3-trifluoro-2,2-dimethylpropoxy)phenyl)thiazol-2-yl)-2-fluorobenzenesulfonamide] | A (“A” refers to AUC > 5)
Cc1cccc(C)c1-c1nc(NS(=O)(=O)c2cccc(NC3CC(C)(O)C3)c2)sc1-c1cccc(OCC(C)(C)C(F)(F)F)c1 (stereo not shown) [Example 13, N-(4-(2,6-Dimethylphenyl)-5-(3-(3,3,3-trifluoro-2,2-dimethylpropoxy)phenyl)thiazol-2-yl)-3-((3-hydroxy-3-methylcyclobutyl)amino)benzenesulfonamide] | A (“A” refers to AUC > 5)

Source: US20240002374A1, “5-MEMBERED HETEROARYLAMINOSULFONAMIDES FOR TREATING CONDITIONS MEDIATED BY DEFICIENT CFTR ACTIVITY” (Genzyme Corporation, priority 2019, published 2024)
